The results in this text go back to patent publication US11628202B2, “Methods of reducing the need for surgery in patients suffering from benign prostatic hyperplasia” (Nymox Corporation, priority 2015, dated 2023).

This test relates to patients with moderate to severe symptomatic benign prostatic hyperplasia (BPH). Put plainly: Prospective assessment of need for subsequent invasive surgical intervention in BPH patients after NX-1207 injection. The format is in vivo, human. On the procedure:
645 patients (Group #1) with moderate to severe symptomatic benign prostatic hyperplasia (BPH) were prospectively randomly assigned to blinded treatment with a single therapeutic injection of NX-1207 or placebo (saline vehicle alone), and their clinical BPH signs and symptoms were assessed at weekly, monthly, 3-monthly or longer intervals, for durations of a few months to 5.5 years. None of these patients had received any prior invasive surgical procedures to treat their BPH condition. A prospective assessment was undertaken of all available subjects>=2 years after baseline to determine the usefulness of NX-1207 treatment for the prevention or the delay of the need for surgical procedures (i.e., subsequent invasive surgical intervention) to treat the patient's BPH condition. Patients who received placebo and no drug treatment progressed to invasive surgical procedures within 2 years of baseline in 7.65% of patients.
352 patients (Group #2) who were randomized and blindly treated with NX-1207 or placebo at the same time as Group #1 in Example 1, in addition to the initial treatment, were given a second treatment injection of NX-1207 at intervals of >=1 year after the initial randomization. None of these patients had received any prior invasive surgical procedures to treat their BPH condition. A prospective assessment was undertaken of all available subjects>=2 years after baseline to determine the usefulness of NX-1207 treatment for the prevention or the delay of the need for invasive surgical intervention to treat the patient's BPH condition.
Patients in Examples 1 and 2 were characterized as to whether they had previous treatment failures with conventional oral medications (i.e. “treatment failure”) vs whether they had not received any previous conventional oral medications for their BPH condition (i.e., “treatment naïve”). A prospective assessment was undertaken of all available subjects>=2 years after baseline to determine the usefulness of NX-1207 treatment for the prevention or the delay of the need for subsequent invasive surgical intervention to treat the patient's BPH condition.
In the above examples, the amount of NX-1207 administered was 2.5 mg.

In the case of “IDQQVLSRIKLEIKRCL [NX-1207, NTP peptide injected once or twice (2.5 mg) in BPH patients]”, under “administered twice”, the “improvement in reducing the need for subsequent invasive surgical intervention, compared to patients who received a single injection” value is recorded as ~69% and the “improvement in reducing the need for subsequent invasive surgical intervention, compared to patients who received the placebo” value is recorded as ~80%. Further, the “need for subsequent invasive surgical intervention” value (previous treatment failure subjects, assessed >=2 years after baseline, treatment failure placebo 10.4%) was determined as 6.1%. The “rate of need for invasive surgical procedures” value (second injection >=1 year after initial randomization, assessed >=2 years after baseline, p<0.001 vs placebo 7.65%, p<0.01 vs single injection 5.1%) turned out to be 1.6%. Moreover, the “reduced rate of invasive surgical procedures within 2 years, compared to placebo” value (single therapeutic injection, 2.5 mg) turned out to be 33.3%. Besides, where the note is “single therapeutic injection, 2.5 mg, BPH patients, no prior invasive surgery, placebo 7.65%”, the “patients progressed to invasive surgical procedures within 2 years of baseline” value is reported as 5.1%. Besides, for the setting “treatment naive patients”, the “improvement in reducing the need for subsequent invasive surgical intervention, compared to patients who received the placebo” value is ~88%; the “improvement in reducing the need for subsequent invasive surgical intervention, compared to treatment failure patients who received the NTP peptide” value is given as ~85%; the “improvement in reducing the need for subsequent invasive surgical intervention, compared to treatment failure patients who received the placebo” value was ~91%. The “need for invasive surgical procedures” value (treatment naïve patients, assessed >=2 years after baseline, placebo controls 7.5%, p<0.01) amounted to 0.9%.
